# US20030073618A1, “Compounds comprising disulfide-containing peptides and nitrogenous bases, and medical uses thereof” (priority 2001, published 2003)
# Where two headings read alike, the source gives them in different places.
# Legend:
# [1] = test system: mycobacterium tuberculosis; conditions: Ex. 16
# HIV = type: in vivo; design: Hemoglobin / Platelets / Leukocytes / ESR: unit not given beside the values; (CD25+) / HLA-DR / (CD16) / IgA / IgM / IgG / CIC / (CD20+) / CD4+ / CD8+: unit not given here; conditions: for Lymphocyte count / Weight gained / Karnovsky score: Ex. 13; for Karnovsky score: on admission 75; for Erythrocytes / Hemoglobin / Leukocytes / Monocytes / Platelets / Segmented neutrophils / Stab neutrophils / ESR: general blood test; for (CD16) / (CD20+) / (CD25+) / CD4+ / CD4/CD8 / CD8+ / CIC / HLA-DR / IgA / IgG / IgM: immune blood test
smiles,measurement,setting,value
N[C@@H](CCC(=O)N[C@@H](CSSC[C@H](NC(=O)CC[C@H](NP(=O)(O)OC[C@H]1O[C@@H](n2cnc3c(=O)[nH]cnc32)[C@H](O)[C@@H]1O)C(=O)O)C(=O)NCC(=O)[O-])C(=O)NCC(=O)[O-])C(=O)O.[Li+].[Li+] [Li2-GSSG-IMP],Karnovsky score,[1]; in 2 months,75
same,Temperature,"[1]; in 2 months, on admission 37.5",36.7 °C
same,Weight gained,[1]; in a month,4 kg
same,Karnovsky score,"[1]; in a month, on admission 50, with antibacterial therapy",70
same,"Bacterial discharge, in the vision field by microscopy","[1]; in a month, on admission up to 100",2-4
same,Karnovsky score,[1]; on treatment completion,90
same,Temperature,[1]; on treatment completion,36.6 °C
same,"X-ray, destruction cavity","[1]; on treatment completion, on admission 4×3 cm",destruction cavity in the left lung upper lobe healed
Cc1cn([C@H]2C[C@H](O)[C@@H](COP(=O)(O)N[C@@H](CCC(=O)N[C@@H](CSSC[C@H](NC(=O)CC[C@H](N)C(=O)O)C(=O)NCC(=O)[O][Zn])C(=O)NCC(=O)[O][Zn])C(=O)O)O2)c(=O)[nH]c1=O [Zn2-GSSG-TMP],Viral load,HIV; 1-month treatment,66000 copies of HIV RNA/ml
same,Lymphocyte count,HIV; after 1-month treatment,1276
same,Weight gained,HIV; after 1-month treatment,1.8 kg
same,Karnovsky score,HIV; after 1-month treatment,80
same,Lymphocyte count,HIV; after completion of treatment,2295
same,Weight gained,HIV; after completion of treatment,2.5 kg
same,Karnovsky score,HIV; after completion of treatment,90
same,Viral load,HIV; Initial value,80000 copies of HIV RNA/ml
same,Viral load,HIV; Treatment completion,15000 copies of HIV RNA/ml
same,Erythrocytes,HIV; 01.04.96,3.9
same,Hemoglobin,HIV; 01.04.96,126
same,Leukocytes,HIV; 01.04.96,3.5
same,Monocytes,HIV; 01.04.96,2
same,Platelets,HIV; 01.04.96,180
same,Segmented neutrophils,HIV; 01.04.96,41
same,Stab neutrophils,HIV; 01.04.96,3
same,ESR,HIV; 03.04.96,21
same,Erythrocytes,HIV; 03.04.96,3.9
same,Hemoglobin,HIV; 03.04.96,125
same,Leukocytes,HIV; 03.04.96,2.6
same,Monocytes,HIV; 03.04.96,7
same,Platelets,HIV; 03.04.96,170
same,Segmented neutrophils,HIV; 03.04.96,47
same,Stab neutrophils,HIV; 03.04.96,8
same,ESR,HIV; 13.03.96,18
same,Erythrocytes,HIV; 13.03.96,5
same,Hemoglobin,HIV; 13.03.96,160
same,Leukocytes,HIV; 13.03.96,2.4
same,Monocytes,HIV; 13.03.96,2
same,Platelets,HIV; 13.03.96,200
same,Segmented neutrophils,HIV; 13.03.96,48
same,Stab neutrophils,HIV; 13.03.96,5
same,ESR,HIV; 15.05.96,12
same,Erythrocytes,HIV; 15.05.96,4.2
same,Hemoglobin,HIV; 15.05.96,136
same,Leukocytes,HIV; 15.05.96,4.5
same,Monocytes,HIV; 15.05.96,3
same,Platelets,HIV; 15.05.96,190
same,Segmented neutrophils,HIV; 15.05.96,49
same,Stab neutrophils,HIV; 15.05.96,7
same,ESR,HIV; 16.04.96,20
same,Erythrocytes,HIV; 16.04.96,4
same,Hemoglobin,HIV; 16.04.96,129
same,Leukocytes,HIV; 16.04.96,2.9
same,Monocytes,HIV; 16.04.96,2
same,Platelets,HIV; 16.04.96,180
same,Segmented neutrophils,HIV; 16.04.96,45
same,Stab neutrophils,HIV; 16.04.96,8
same,ESR,HIV; 28.03.96,16
same,Erythrocytes,HIV; 28.03.96,4.3
same,Hemoglobin,HIV; 28.03.96,136
same,Leukocytes,HIV; 28.03.96,2.9
same,Monocytes,HIV; 28.03.96,2
same,Segmented neutrophils,HIV; 28.03.96,35
same,Stab neutrophils,HIV; 28.03.96,4
same,(CD16),HIV; 03.04.96,198
same,(CD20+),HIV; 03.04.96,217
same,(CD25+),HIV; 03.04.96,207
same,CD4+,HIV; 03.04.96,247
same,CD4/CD8,HIV; 03.04.96,0.89
same,CD8+,HIV; 03.04.96,277
same,CIC,HIV; 03.04.96,0.175
same,HLA-DR,HIV; 03.04.96,237
same,IgA,HIV; 03.04.96,2.1
same,IgG,HIV; 03.04.96,20
same,IgM,HIV; 03.04.96,4.6
same,(CD16),HIV; 13.03.96,216
same,(CD20+),HIV; 13.03.96,256
same,(CD25+),HIV; 13.03.96,226
same,CD4+,HIV; 13.03.96,276
same,CD4/CD8,HIV; 13.03.96,0.78
same,CD8+,HIV; 13.03.96,354
same,CIC,HIV; 13.03.96,0.09
same,HLA-DR,HIV; 13.03.96,354
same,IgA,HIV; 13.03.96,1.8
same,IgG,HIV; 13.03.96,18.8
same,IgM,HIV; 13.03.96,2.6
same,(CD16),HIV; 15.05.96,505
same,(CD20+),HIV; 15.05.96,390
same,(CD25+),HIV; 15.05.96,482
same,CD4+,HIV; 15.05.96,574
same,CD4/CD8,HIV; 15.05.96,0.96
same,CD8+,HIV; 15.05.96,597
same,CIC,HIV; 15.05.96,0.075
same,HLA-DR,HIV; 15.05.96,665
same,IgA,HIV; 15.05.96,1.5
same,IgG,HIV; 15.05.96,28
same,IgM,HIV; 15.05.96,3.1
same,(CD16),HIV; 17.04.96,332
same,(CD20+),HIV; 17.04.96,306
same,(CD25+),HIV; 17.04.96,332
same,CD4+,HIV; 17.04.96,319
same,CD4/CD8,HIV; 17.04.96,0.86
same,CD8+,HIV; 17.04.96,370
same,CIC,HIV; 17.04.96,0.11
same,HLA-DR,HIV; 17.04.96,434
same,IgA,HIV; 17.04.96,1.6
same,IgG,HIV; 17.04.96,24
same,IgM,HIV; 17.04.96,5.2
